{"source": "patent US11478445B2", "about": "“Method for treating acute myeloid leukemia” (Bionomics Limited, priority 2017, dated 2022)", "key": {"[1]": {"test_system": "AML cell lines", "assay": "Cytotoxicity (CellTox Green) and viability/proliferation (CellTiter-Blue) assays", "format": "cell-based", "method": "The cell lines were plated in 96-well plates (black with clear flat bottom, Costar, 3603) at 2×10^4 cells/well in 50 uL of respective media, containing 0.1% DMSO and CellTox Green reagent (Promega, G8742) at a final dilution of 1/500. Cells were plated in triplicate wells for each dose being tested. EX 1 was reconstituted immediately prior to use at 10 mM in DMSO. The drug was prepared 2× concentrated in media containing 0.1% DMSO and 50 uL added to respective wells. Fluorescence (485-500 nmEx/520-530 nmEm) was measured at 24 h and 48 h with a FLOUstar OPTIMA plate reader (BMG Labtech). After the cytotoxicity measurement at 48 h, 20 μL of CellTiter-Blue reagent (Promega, G8080) was added to each well and the plate incubated for 1 h at 37° C. before fluorescence (560Ex/590Em) was measured with a FLOUstar OPTIMA plate reader (BMG Labtech).\nThe first experiment was performed with HL60 and MOLM13 cell lines. Cells were expanded and when numbers were adequate (and viability higher than 90%) they were plated in 96-well plates at 2×10^4 cells/well in 50 uL of their respective media, containing 0.1% DMSO and CellTox Green reagent. Doses tested ranged from 1 μM followed by serial 1/10 dilutions until 10^−5 nM EX 1, or vehicle only. Plates were cultured and fluorescence (indicating cytotoxicity) was measured at 24 h and 48 h. After the cytotoxicity was read at 48 h, CellTiter-Blue reagent was added to each well. The readout of this assay is based on the metabolic activity of cells and it is used as surrogate marker for proliferation and/or cell viability.\nThe next experiment was performed with the cell lines ME1, OCI-AML3, MV4; 11 and KG1 following the same protocol as above. From the results from the previous experiment it was observed that the non-linear curve fit was very steep between 1 nM and 0.1 nM (FIGS. 1A and B); thus, for this and the subsequent experiments the drug doses were adjusted to: […], 10 nM, 1 nM, 0.75 nM, 0.5 nM, 0.25 nM, 0.1 nM, 0.01 nM and 0.001 nM. […] Cytotoxicity and proliferation (metabolic assay) were measured as above. […]"}, "[2]": {"test_system": "chronic lymphocytic leukaemia (CLL) cells", "details": "Bates et al. 2016; cited from earlier work"}, "[3]": {"test_system": "HL-60 AML cell line", "assay": "MTS proliferation assay, HL-60", "format": "cell-based", "method": "The cell lines (MV4; 11 and HL-60) were plated in 96-well plates at 1×10^4 cells/well in 50 uL of complete growth media. Cells were plated in triplicate wells for each dose being tested. EX 1 (in DMSO), Oxi4503 (EndoTherm, Batch #EN09013, in water), CA4P (Selleckchem, Cat #S7204, in water) and Plinabulin (Selleckchem, Cat #S1176, in DMSO) was reconstituted immediately prior to use at 10 mM in appropriate diluent as indicated. The drug was prepared 2× concentrated in media and 50 uL added to respective wells (0.1% DMSO or water, final concentration). After 72 hours, 20 μL of CellTiter 96 AQueous One Solution reagent (Promega cat #G3581) was added to each well and the plate incubated for 2 h at 37° C. before absorbance was measured at 492 nm using a Thermo Multiskan Ascent96/384 Plate Reader.\nTo compare the efficacy of EX 1 with other tubulin polymerisation inhibitors, MTS proliferation assays were performed on MV4; 11 and HL-60 AML cell lines (Table 1). […] Cells were cultured with the compounds for 72 hours before viability was measured by the addition of CellTiter 96 AQueous One Solution reagent (Promega cat #G3581) and absorbance measured at 492 nm. IC50 was calculated using the absolute IC50 method in GraphPad Prism 6."}}, "data": [{"smiles": "COc1cc(C(=O)c2c(C)oc3c(O)c(OC)ccc23)cc(OC)c1OC", "note": "[EX 1, 2-Methyl-7-hydroxy-3-(3,4,5-trimethoxybenzoyl)-6-methoxybenzofuran]", "values": [{"measurement": "cytotoxicity and CellTiter response", "setting": "[1]; less sensitive cell lines ME1, OCI-AML3 and KG1", "result": "showed a lower cytotoxicity response"}, {"measurement": "cytotoxicity and inhibitory proliferation response", "setting": "[1]; more sensitive cell lines HL60, MOLM13 and MV4;11", "result": "reached the highest cytotoxicity and showed the largest inhibitory proliferation response"}, {"measurement": "IC50", "setting": "[1]; range over six AML cell lines (MV4;11, MOLM13, HL60, KG1, ME1, OCI-AML3), 48 h, FIGS. 1A and B, read-out: IC50 doses (cytotoxicity and viability)", "result": "0.2 to 1.3", "unit": "nM"}, {"measurement": "apoptosis via P-JNK and Noxa", "setting": "[2]", "result": "induce apoptosis"}, {"measurement": "IC50 compared with Oxi4503, CA4P and Plinabulin", "setting": "[3]; HL-60, 72 h", "result": "lowest IC50"}, {"measurement": "potency relative to any other VDAs (times more potent)", "setting": "[3]; HL-60, 72 h exposure", "result": "at least 10 times"}]}]}
